Experimental data: publication PMC5861052, “Uptake and accumulation of Microcystin-LR based on exposure through drinking water: An animal model assessing the human health risk” (Scientific Reports, 2018)
“And” between values parts separate entries of the source, which are not always exact repeats. Equal values may be shown once.

How the values were obtained:
[1] = Free MC-LR in porcine serum, experiment 1 (low dose), UPLC-MS/MS; conditions: pig, in vivo, po
Protocol: The animal studies were performed under licence (PPL 2755 - Chemical contaminants in food producing animals) issued by the Department of Health, Social Services and Public Safety in Northern Ireland (NI) in accordance with the Animal (Scientific Procedures) Act (1986), and under the approval of the Agri-Food and Biosciences Institute (AFBI) Animal Welfare and Ethical Review Body (AWERB) and associated EU Directive 2010/63/EU for animal experiments. The study was performed on behalf of Queen’s University Belfast (QUB) by the Veterinary Sciences Division, Agri-Food and Biosciences Institute, Belfast, Northern Ireland. […]
Following the acclimatization period of seven days, eight healthy pigs were selected randomly for the control group and the remaining eight healthy pigs assigned to the treatment group. Before treatment, animals were examined by a veterinarian to confirm clinical health and then weighed, with the weight and identification of animals in each group recorded. […]
Analysis was performed using an ACQUITY UPLC i-Class system coupled to a Xevo TQ-S (triple quadrupole MS/MS) Mass Spectrometer (Waters, Manchester, UK). Detection and quantification was achieved using targeted analysis using Multiple Reaction Monitoring (MRM) and operated in ESI^+ mode. […]

[2] = Free MC-LR in porcine tissues, experiment 1 (low dose), UPLC-MS/MS; conditions: pig, in vivo, po
Source text: (§1) Following the acclimatization period of seven days, eight healthy pigs were selected randomly for the control group and the remaining eight healthy pigs assigned to the treatment group. Before treatment, animals were examined by a veterinarian to confirm clinical health and then weighed, with the weight and identification of animals in each group recorded. Over the study period (13 weeks), each animal from the treatment group received a low dose of MC-LR daily by oral gavage. The dose administered was 0.04 µg toxin/kg body weight, the provisional World Health Organization Tolerable Daily Intake (WHO TDI), based on the NOAEL derived from the animal experiment conducted by Fawell et al. (1999), with the average dose for the eight treated animals outlined in Table 3. Briefly, a 1 mg/mL solution of MC-LR was prepared by the addition of 250 µL of ethanol followed by 750 µL water. The appropriate dilutions were then performed depending on the weight of the animal to ensure the correct dose was administered in 5 mL of water.
Serum was collected weekly, starting at day -7 from treated and control animals as the pre-bleeds. […]
(§2) In order to quantify any toxins identified, a six-point extracted matrix-matched calibration curve in the range 0.001–0.1 μg/g dw was prepared using pooled control samples of the relevant tissue. […]

[3] = Bound MC-LR (MMPB) in porcine liver by Lemieux oxidation, experiment 1; conditions: pig, in vivo, po
Source text: as §1, with “Briefly, a 1 mg/mL solution of MC-LR was prepared by the addition of 250 µL of ethanol followed by 750 µL water. The appropriate dilutions were then performed depending on the weight of the animal to ensure the correct dose was administered in 5 mL of water.” left out
Porcine tissue samples (50 mg) were weighed into 50 mL round bottomed flasks with the conversion and subsequent enrichment of MMPB carried out as outlined in ‘Analysis of conjugated MC-LR in porcine tissue’ (see Supplementary Information online). Samples were initially screened for MMPB, with any samples found to contain toxin quantified by use of a six point extracted matrix matched calibration curve in the range 0.010–0.25 µg/g dw using pooled control tissue of the relevant tissue, with calibrant levels achieved by spiking with the MMPB standard at a concentration of either 0.5 or 0.05 µg/mL after pH adjustment. […]

[4] = Free MC-LR in porcine serum, experiment 2 (high dose), UPLC-MS/MS; conditions: pig, in vivo, po
Protocol: (§3) This study was performed as described previously using twelve male Duroc pigs, six control and six treated pigs. Housing, diet and treatment were as described previously with the following modifications:
(§4) Animals were subjected to a fourteen-day acclimatization period prior to assignment to control or treated groups. Over the study period, each animal from the treatment group received a daily dose of 2 µg toxin/kg body weight MC-LR by oral gavage, 50 times the provisional WHO TDI, with the average dose for the six treated animals outlined in Table 4
, with the MC-LR for dosing prepared as described above. At day 40 (approximately 5 weeks) treated and control animals were euthanized. Sample collection and storage was as outlined for experiment 1. […]
Analysis was performed using an ACQUITY UPLC i-Class system coupled to a Xevo TQ-S (triple quadrupole MS/MS) Mass Spectrometer (Waters, Manchester, UK). Detection and quantification was achieved using targeted analysis using Multiple Reaction Monitoring (MRM) and operated in ESI^+ mode. Analyte precursor ions were identified as [M + H]^+ for both MC-LR and NOD (IS) with the quantifying (Q) and qualifying (q) ions used as follows:
To quantify any MC-LR detected, a seven point extracted matrix matched calibration curve in the range 0.2-100 ng/mL serum was prepared using the ‘negative’ porcine serum. […]

[5] = Free MC-LR in porcine tissues, experiment 2 (high dose), UPLC-MS/MS; conditions: pig, in vivo, po
Protocol: as §3, §4
(§5) , with the MC-LR for dosing prepared as described above. At day 40 (approximately 5 weeks) treated and control animals were euthanized. Sample collection and storage was as outlined for experiment 1.
Tissue samples (see Supplementary Information online) (100 mg) were spiked with 10 μL of the NOD (IS) at 0.5 μg/mL and extracted by addition of 1.5 mL of 80% aqueous MeOH (v/v) (0.5% acetic acid v/v), vortex mixed briefly and sonicated at 35–40 °C for 45 min before centrifugation at 16 000 g for 15 min. […]
as §2

[6] = type: in vivo; conditions: pig
Protocol: as §3, §4, §5
Porcine tissue samples (50 mg) were weighed into 50 mL round bottomed flasks with the conversion and subsequent enrichment of MMPB carried out as outlined in ‘Analysis of conjugated MC-LR in porcine tissue’ (see Supplementary Information online). Samples were initially screened for MMPB, with any samples found to contain toxin quantified by use of a six point extracted matrix matched calibration curve in the range 0.010–0.25 µg/g dw using pooled control tissue of the relevant tissue, with calibrant levels achieved by spiking with the MMPB standard at a concentration of either 0.5 or 0.05 µg/mL after pH adjustment.
Conversion of any bound MC-LR and subsequent extraction was performed according to a modified method derived from Neffling et al. (2010) and developed using 50 mg aliquots of lyophilised homogenised, pooled porcine tissue from the control animals. 50 mg of tissue was weighed into a 50 mL round bottomed flask and 5 mL of oxidation solution at a concentration of 0.1 M was added, comprising both potassium permanganate (KMnO4) and sodium (meta) periodate (NaIO4) at 0.2 M mixed 1:1 v/v. The mixture was stirred at room temperature for 2 h whereby the colour of the solution turned from purple (colour of KMnO4) to red/brown (colour of the reduced product MnO2). A further 4 mL oxidation solution at 0.1 M was added turning the solution back to purple. The reaction was immediately quenched by addition of 1 mL sodium bisulphite solution (40% v/v). Following this, samples were transferred to 15 mL tubes and 10% sulphuric acid was added drop wise until the pH was acidic (~ 2). Samples were then centrifuged at 4 500 rpm for 15 min and the supernatant removed and loaded directly onto SPE cartridges.
Sample enrichment and clean-up was carried out using OASIS PRiME HLB cartridges, with samples loaded onto the cartridges, allowed to drip through under gravity then washed with water and 20% aqueous methanol (v/v). Bound MMPB was eluted into clean glass tubes using 2 x 1.5 mL 80% aqueous methanol (v/v) and the eluents evaporated to dryness under a gentle stream of nitrogen using a turbovap set at 45 °C. Samples were reconstituted in 100 µL 80% aqueous MeOH (v/v) and transferred to a micro vial for analysis.
Analysis of MMPB was performed as described above in ‘Analysis of free MC-LR and MC-LR-GSH in porcine tissues’. Detection and quantification was achieved using MRM, with MMPB seen as the [M + H]^+ ion and the transitions optimised manually as follows:
Separation was achieved using the same column and mobile phases as detailed above in ‘Analysis of free MC-LR in porcine serum’ with the flow rate set at 0.4 ml/min. The gradient used to achieve separation was as described above with the ACN initially held at 10%, then returned to 10% prior to the next injection.

[7] = Parent ion scan of Adda fragment (m/z 135) in porcine serum; conditions: pig, in vivo
Protocol: With MC-LR and its congeners, as well as any potential metabolites of MC-LR having in common the shared Adda group ((2S, 3S, 8S, 9S)-3-amino-9-methoxy-2, 6, 8-trimethyl-10-phenyldeca-4(E), 6(E)-dienoic acid) (Fig. 1)[8], serum samples were analysed for parent ions of Adda, with this fragment having an m/z of 135. This was optimised using the MC-LR standard and indicated a peak at the same retention time as when analysed in MRM mode, with the retention window extended to allow identification of any potential MC-LR metabolites.
A selection of serum sample time points from experiment (1) were chosen (n = 32), with; t = 14, t = 42, t = 70 and t = 98 correlating to the start, one, two and three months of treatment for each animal, as well as serum from all time points (n = 36) for each animal from experiment (2).

[8] = in vivo, cited from earlier work
Protocol: Looking at the study by Tencalla et al. (1997) in which rainbow trout were dosed with MC-LR also via oral gavage, they estimated the uptake of MC-LR into blood to be approximately 4.4% of the dose administered of 5700 µg MC-LR/kg bw[51]. Based on the findings reported by Tencalla et al. and taking the average bodyweight of the six animals in the final week of dosing in experiment (2) of our study, the average dose administered to the six animals equates to 96 µg of MC-LR per day for the last week. […].

[9] = mouse, in vivo, iv; cited from earlier work
Protocol: […]. In another experiment conducted by Robinson et al. (1991) using radiolabelled MC-LR to track its distribution in mice, levels of radiolabelled MC-LR peaked in the liver after only 30 min[52], although in this case the mice were injected intravenously via the tail vein rather than by oral g ...

Compound | free MC-LR in serum [1] | free MC-LR in liver, kidney, large and small intestine tissues [2] | bound MC-LR (MMPB) in liver tissue [3] | free MC-LR in serum [4] | free MC-LR in all other tissue samples (liver, kidney, small and large intestine, spleen, brain) [5] | MC-LR present in liver ([6]; in vivo) | Uptake of MC-LR by liver as percentage of the dose administered ([6]; in vivo) | average amount of bound MC-LR accumulated in liver ([6]; in vivo) | average uptake of MC-LR by liver as percentage of total dose administered ([6]; in vivo) | estimated bound MC-LR in liver (average) ([6]; in vivo) | peaks in parent ion scan of Adda fragment m/z 135 in serum (free MC-LR or MC-LR metabolites) [7] | uptake of MC-LR into blood as percentage of dose administered ([8]; po) | uptake of MC-LR into the liver ([8]; po) | half-life in the blood [8] | time after which the liver indicated the presence of MC-LR [8] | time of maximum levels in the liver after exposure [8] | time at which levels of radiolabelled MC-LR peaked in the liver [9] | concentration of MMPB detected in liver (average estimated value) ([6]; livers of T2, T4 and T5, MC-LR oral gavage 2 µg/kg bw daily, Lemieux oxidation, dry weight)
Microcystin-LR [MC-LR] | < 0.03 ng/mL | none of the tissues contained any trace | negative | negative | free of MC-LR residues | 23.1 µg and 21.9 µg and 34.1 µg | 1.1% and 0.8% and 1.5% | 26.4 ± 5.5 µg | 1.1% | 23.2 ng/g ww | negative | approximately 4.4% | 1.7% | 3.3 h | 1 h | 3 h | 30 min | –
COC(Cc1ccccc1)C(C)C(=O)O (stereo not drawn) [MMPB, 2-methyl-3-methoxy-4-phenylbutyric acid] | – | – | – | – | – | – | – | – | – | – | – | – | – | – | – | – | – | 14.4 ng/g dw
